The source of these data is patent US9072695B2, “Aromatase activator” (Kao Corporation, priority 2011, dated 2015).

For the assay, the target named is T1, aromatase (Homo sapiens, UniProt P11511).
T1 construct: host or cells: human skin fibroblasts (HDF1616)
T1 sequence (P11511 1-503): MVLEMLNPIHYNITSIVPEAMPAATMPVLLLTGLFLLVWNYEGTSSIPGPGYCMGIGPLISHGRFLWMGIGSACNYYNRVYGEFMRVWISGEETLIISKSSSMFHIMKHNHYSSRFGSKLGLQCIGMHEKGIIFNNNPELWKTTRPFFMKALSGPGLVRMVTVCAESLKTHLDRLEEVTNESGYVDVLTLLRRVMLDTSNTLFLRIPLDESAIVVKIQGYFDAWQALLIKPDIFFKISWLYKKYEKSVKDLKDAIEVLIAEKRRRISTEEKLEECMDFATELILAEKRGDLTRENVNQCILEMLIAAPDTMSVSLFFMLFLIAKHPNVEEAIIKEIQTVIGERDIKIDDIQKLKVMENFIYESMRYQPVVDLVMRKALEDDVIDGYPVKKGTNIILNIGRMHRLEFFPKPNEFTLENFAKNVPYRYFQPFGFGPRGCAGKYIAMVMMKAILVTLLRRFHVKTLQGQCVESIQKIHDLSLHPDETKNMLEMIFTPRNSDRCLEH
As to the kind of experiment: Aromatase activation effect in fibroblasts derived from human skin (3H2O release from 1β-3H-androst-4-ene-3,17-dione). In kind it is cell-based. Particulars: for Aromatase activity: fibroblasts (HDF1616) derived from human skin, amount added 4.65 × 10^−6 mol/L, control 6.85; for Aromatase activation effect (in words): fibroblasts derived from human skin, 4.65×10^−6 mol/L, compared with control (no addition). Here is the method:
The aromatase activation effect of the compounds 1 and 2 prepared in Production Example 1 was examined with reference to Stampfer M J, Willett W C, Colditz G A, Rosner B, Speizer F E and Hennenkens C H, N. Engl. J. Med., 313, 1044-1049, 1985.
Fibroblasts (HDF1616: KURABO) derived from human skin were planted in a 24-well cell culture plate (FALCON) to culture until it became confluent. The medium was removed and 900 μL of a serum-free medium was added to the wells to culture for 24 hr. At this time, the compound 1 or 2 prepared using an aqueous 95% ethanol solution such that the final concentration was 4.65×10^−6 mol/L was added to the wells. Also, a sample in which an aqueous 95% ethanol solution was added and a sample (no addition) in which no material was added were prepared as controls.
1β-3H-androst-4-ene-3,17-dione (Perkin Elmer) which was the substrate of aromatase was added in the serum-free medium such that the concentration was 37 kBq/100 μL and added in an amount of 100 μL in each well to culture for 24 hr. 900 μL of the culture product was taken, in a 2 mL tube from one well and 1 mL of CHCl3 was added to the cultured product, which was then stirred vigorously. The cultured product was centrifuged at 15,000 rpm for 10 min to transfer the upper layer (water layer) to another tube. 200 μL of Charcoal/Dextran (which is one obtained by suspending 5 g of Charcoal, dextran coated (SIGMA) in 50 mL of H2O) was added to the upper layer, which was fairly mixed and then allowed to stand at ambient temperature for 30 min. The mixture was centrifuged at 15,000 rpm for 10 min and the supernatant was transferred to a new tube. 1 mL of […] was added to the supernatant, which was then vigorously stirred and centrifuged at 15,000 rpm for 10 min and the upper layer (water layer) was added to 5 mL of Ultima Gold (Perkin Elmer) to measure the radioactivity of ^3H by a liquid scintillation counter (Perkin Elmer Tricarb 2550). The same serum-free medium containing no cell was incubated for the same hours without adding a drug, followed by the same procedures to measure the radioactivity of ^3H and the radioactivity was subtracted from the above measured radioactivity.
1β-3H-androst-4-ene-3,17-dione releases ^3H2O by an aromatase reaction and is converted into estrogen having no radioactivity. In this experimental method, the radioactivity of released ^3H2O is detected, showing that the higher the radioactivity is, the higher the aromatase activity is.

With `CC1=CC[C@H](C)C(C)(C)[C@@H]1CC/C(C)=C/CC[C@@]1(C)[C@H](CCCO)/C(=C(/C)C=O)CC[C@]1(C)O` [Compound 1], the Aromatase activity was determined as 21.68 fmol/day/well and the “Aromatase activation effect (in words)” value is “activated aromatase existing in cells”.

Take `C=C1CC[C@H](C)C(C)(C)[C@@H]1CC/C(C)=C/CC[C@@]1(C)[C@H](CCCO)/C(=C(/C)C=O)CC[C@]1(C)O` [Compound 2]: the Aromatase activity came out at 22.34 fmol/day/well and the “Aromatase activation effect (in words)” value was “activated aromatase existing in cells”.
